Assay [1] concerns human plasma. The experiment in a line: APTT (activated partial thromboplastin time), clotting time of human plasma in vitro. The following applies: pooled citrated human plasma; for APTT: concentration of compound to extend the normal APTT by 1.5×: 1.5× extension of clotting time; for APTT: degree of extension (ratio of clotting times in presence or absence of compound): at 100 nM compound. It is filed as biochemical. On the procedure:
Pooled citrated (0.38% trisodium citrate w/v) plasma was prepared from blood taken from healthy volunteers and stored at −70° C. The APTT tests were performed using a Thrombtrack 4 from Nycomed. Actin reagent (a reconstituted extract from dehydrated rabbit brain, also containing ellagic acid) was obtained from Baxter Healthcare Corporation USA. Briefly, citrated plasma was added to either compound or distilled water followed by addition of actin reagent. These were then mixed for 2 min at 37° C. before adding calcium chloride to initiate clotting. Compounds extended the normal clotting time, which is in the range 30-35 seconds, to varying degrees depending on their concentrations. The degrees of extension of the APTT was calculated by the ratio of clotting times in presence or absence of compound. The concentration of a compound to extend the ‘normal’ APTT by 1.5× was used as a criterion for comparing the anti-coagulant activities of compounds.

For assay [2], the target named is human α-thrombin (Homo sapiens, UniProt P00734). Put plainly: Thrombin inhibitory activity, chromogenic assay. It is filed as biochemical. The following applies: substrate N-p-tosyl-gly-pro-lys p-nitroanilide 100 μM, thrombin 1 nM, pH 7.4, room temperature. Here is the method:
All dilutions were made in a buffer consisting of: 50 mM HEPES, 150 mM NaCl, 5 mM CaCl2, 0.1% PEG and at pH 7.4. Briefly, the substrate (final conc. of 100 μM) was added to thrombin (final conc. of 1 nM) and the reaction monitored for 10 mins at 405 nm using a Biotek EL340 plate reader; the assay was performed at room temperature. To obtain IC50s the data were analyzed using Kineticalc™ and processed using ActivityBase™ to obtain the IC50 value.

For `CCCN(CCC)C(=O)c1cc(C)cc(OC[C@H](C)Nc2ccncc2)c1` [Example 5, 3-Methyl-N,N-dipropyl-5-[2S-(pyridin-4-ylamino)-propoxy]-benzamide], in assay [1], the “APTT: concentration of compound to extend the normal APTT by 1.5×” value (“APTT: concentration of compound” below) is 110 (1.5×) nM. Moreover, the IC50 (in general, the concentration needed to halve the response being measured) in assay [2] was < 1 nM.
The matching figures for `CCC(COc1cc(Cl)cc(C(=O)N(C(C)C)C(C)C)c1)Nc1ccncc1.Cl` (stereo not shown) [Example 11, 3-Chloro-N,N-diisopropyl-5-[2-(pyridin-4-ylamino)-butoxy]-benzamide hydrochloride]: 650 (1.5×) nM and 26 nM.
On to `CCCCN(CCC)C(=O)c1cc(C)cc(OC[C@H](C)Nc2ccncc2)c1` [Example 7, N-Butyl-3-methyl-N-propyl-5-[2S-(pyridin-4-ylamino)-propoxy]-benzamide], for which the “APTT: degree of extension (ratio of clotting times in presence or absence of compound)” value in assay [1] was 100 (1.31×). The 50% inhibitory concentration (IC50) in assay [2] was < 1 nM.
The matching figures for `Cc1cc(OC[C@H](C)Nc2ccncc2)cc(C(=O)N(C(C)C)C2CCCCC2)c1` [Example 8, N-Cyclohexyl-N-isopropyl-3-methyl-5-[2S-(pyridin-4-ylamino)-propoxy]-benzamide]: 100 (1.32×) and < 1 nM.
For the molecule `Cc1cc(OC[C@H](C)Nc2ccncc2)cc(C(=O)N(C)C(C)C)c1` [Example 3, N-Isopropyl-3,N-dimethyl-5-[2S-(pyridin-4-ylamino)-propoxy]-benzamide], in assay [1], the “APTT: concentration of compound” value is 90 (1.5×) nM. For the same molecule, half-maximal inhibition in assay [2] (IC50) was put at 3 nM.
In the case of `CCCN(C(=O)c1cc(C)cc(OC[C@H](C)Nc2ccncc2)c1)C(C)C` [Example 9, N-Isopropyl-3-methyl-N-propyl-5-[2S-(pyridin-4-ylamino)-propoxy]-benzamide], the “APTT: concentration of compound” value in assay [1] is 60 (1.5×) nM. The half-maximal inhibitory concentration (IC50) in assay [2] is < 1 nM.
Take `CCCN(C(=O)c1cc(Cl)cc(OC[C@H](C)Nc2ccncc2)c1)C(C)C` [Example 10, 3-Chloro-N-isopropyl-N-propyl-5-[2S-(pyridin-4-ylamino)-propoxy]-benzamide]: the “APTT: degree of extension (ratio of clotting times in presence or absence of compound)” value in assay [1] is 100 (1.28×). In assay [2], this molecule yielded an IC50 of 3.4 nM.
For the molecule `CCN(C(=O)c1cc(C)cc(OC[C@H](C)Nc2ccncc2)c1)C(C)C` [Example 1, N-Ethyl-N-isopropyl-3-methyl-5-[2S-(pyridin-4-ylamino)-propoxy]-benzamide], the “APTT: concentration of compound” value in assay [1] is 40 (1.5×) nM. The IC50 in assay [2] was < 1 nM.
As to `Cc1cc(OC[C@H](C)Nc2ccncc2)cc(C(=O)N(C(C)C)C(C)C)c1` [Example 2, N,N-Diisopropyl-3-methyl-5-[2S-(pyridin-4-ylamino)-propoxy]-benzamide], the “APTT: concentration of compound” value in assay [1] is 80 (1.5×) nM. Moreover, in assay [2], the IC50 is < 1 nM.
With `CCCN(CC)C(=O)c1cc(C)cc(OC[C@H](C)Nc2ccncc2)c1` [Example 6, N-Ethyl-3-methyl-N-propyl-5-[2S-(pyridin-4-ylamino)-propoxy]-benzamide], the “APTT: concentration of compound” value in assay [1] is 120 (1.5×) nM. The molecule further returned an IC50 in assay [2] of 1.5 nM.
The matching figures for `CCCN(C)C(=O)c1cc(C)cc(OC[C@H](C)Nc2ccncc2)c1` [Example 4, 3,N-Dimethyl-N-propyl-5-[2S-(pyridin-4-ylamino)-propoxy]-benzamide]: 97 (1.5×) nM and 5 nM.

(Values after US6670381B2, “Benzamide derivatives as thrombin inhibitors” (SmithKline Beecham Corporation, priority 1998, dated 2003).)
